Broadly, the LD50 is the dose at which mortality reaches 50%. High values mean a less toxic substance, low ones a more toxic substance.

SMILES strings stand for the structures. Like-named read-outs stand apart in the source and are kept apart here. Some results are limits rather than exact numbers.

The values below come from patent US5527801A, “Ameliorant for blood lipid metabolism” (Dainippon Pharmaceutical Co., Ltd., priority 1991, dated 1996).

In data set [1] the test system is total cholesterol in plasma. Nature of the data set: Total cholesterol in plasma of rabbits fed high fat feed. Type of data set: in vivo, male white Japanese rabbits. Conditions: for Total cholesterol concentration in plasma: ± standard error; for Total cholesterol concentration, effect in words: vs High fat feed + Vehicle, up to 9 weeks. How it is done:
(§1) In this experiment, male white Japanese rabbits (5 to 7 rabbits/group) were used. The high fat feed was prepared by adding 1% cholesterol and 6% coconut oil to the solid feed (Oriental Yeast Co., Ltd., RC-4).
(§2) Separately, in the normal feed group, each rabbit was given normal solid feed (RC-4) (100 g/day) and a vehicle (tragacanth solution) orally.

The subject of data set [2] is free cholesterol in plasma. Nature of the data set: Free cholesterol in plasma of rabbits fed high fat feed. The class given is in vivo, male white Japanese rabbits. The conditions noted are these: for Free cholesterol concentration in plasma: ± standard error; for Free cholesterol concentration, effect in words: vs High fat feed + Vehicle, up to 9 weeks. How it is done: as §1, §2

Data set [3] concerns phospholipid in plasma. Nature of the data set: Phospholipid in plasma of rabbits fed high fat feed. The class given is in vivo, male white Japanese rabbits. Conditions: for Phospholipid concentration in plasma: ± standard error; for Phospholipid concentration, effect in words: vs High fat feed + Vehicle, up to 9 weeks. How it is done:
as §1, §2

In data set [4] the test system is cholesterol amount in aortas. Nature of the data set: Cholesterol amount in the aorta of rabbits fed high fat feed (atherosclerosis). Conditions: 9 weeks; for Cholesterol amount in aortas: high fat feed, oral once a day: maleate of Compound A 30, diltiazem 50, prazosin 3 mg/kg/day; for Cholesterol amount in the aorta, effect in words: vs High fat feed + Vehicle. Type of data set: in vivo, male white Japanese rabbits. How it is done: as §1, §2
(§3) Nine weeks after the beginning of administration, each rabbit was killed with bleeding under pentobarbital-anesthesia, and the aorta was taken out. The cholesterol amount in the aorta was determined, and the lipid deposition at the aortic inner wall was stained and the area of the stained parts was measured.

The subject of data set [5] is lipid deposition at aortic inner wall. In words: Area of lipid deposition at aortic inner wall of rabbits fed high fat feed (atherosclerosis). The conditions noted are these: 9 weeks; for Area of lipid deposition at aortic inner wall: high fat feed, percentage of whole area of aortic inner wall, oral once a day: maleate of Compound A 30, diltiazem 50, prazosin 3 mg/kg/day; for Area of lipid deposition at the aortic inner wall, effect in words: vs High fat feed + Vehicle. The class given is in vivo, male white Japanese rabbits. How it is done:
as §1, §2, §3

The conditions of data set [6]: JP Kokoku 58341/1991 (U.S. Pat. No. 4,749,703); cited from earlier work.
The test system of data set [7] is α1-receptor. Conditions: Jpn. J. Pharmacol., 52 (suppl. 1), 212 (1990); cited from earlier work.
Data set [8] can be described thus: Hypotensive activity at the dosages of the experiment. Type of data set: in vivo. Conditions: at 30 (maleate of Compound A), 50 (diltiazem), 3 (prazosin) mg/kg/day, oral.
The test system of data set [9] is atherosclerosis. The conditions noted are these: cited from earlier work.
A short description of data set [10]: Acute toxicity (LD50), oral, mice. Conditions: mouse, in vivo.
Data set [11] concerns rats. Conditions: rat, in vivo.
For data set [12], the system named is beagles. The conditions noted are these: dog, in vivo.
Data set [13] relates to blood lipid. The conditions noted are these: cited from earlier work.
Where [14] appears, read: week 0, high fat feed, before treatment.
[15] abbreviates: week 6, high fat feed, oral once a day: maleate of Compound A 30, diltiazem 50, prazosin 3 mg/kg/day.
Setting [16] is: week 8, high fat feed, oral once a day: maleate of Compound A 30, diltiazem 50, prazosin 3 mg/kg/day.
The mark [17] stands for this setting: week 9, high fat feed, oral once a day: maleate of Compound A 30, diltiazem 50, prazosin 3 mg/kg/day.

Turning to `O=C(CCCN1CCN(c2ccc(F)cc2)CC1)NC1c2ccccc2CSc2ccccc21` (stereo not shown) [Compound A], the “Total cholesterol concentration in plasma” value in [1] (setting [14]) was determined as 1161 ± 110 mg/dL; in data set [1] (setting [15]), 1595 ± 136 mg/dL; in data set [1] (setting [16]) it was 1074 ± 162 mg/dL; in data set [1] (setting [17]) it was 1070 mg/dL. Further, the “Free cholesterol concentration in plasma” value was determined as 346 ± 34 mg/dL in data set [2] (setting [14]), 503 ± 43 mg/dL in data set [2] (setting [15]), 330 ± 56 mg/dL in data set [2] (setting [16]) and 306 mg/dL in data set [2] (setting [17]). The “Phospholipid concentration in plasma” value in data set [3] (setting [14]) turned out to be 452 ± 42 mg/dL; in data set [3] (setting [15]), 678 ± 70 mg/dL; in data set [3] (setting [16]), 529 ± 66 mg/dL; in data set [3] (setting [17]), 489 mg/dL. Further, the “Cholesterol amount in aortas” value in [4] is 234.4 ± 39.4 mg/kg of protein. In data set [5], the “Area of lipid deposition at aortic inner wall” value (“Area … at aortic inner wall” for short) was 35.2%. Moreover, the calcium antagonistic activity entry in [6] is listed as “potent calcium antagonistic activity”. The α1-receptor blocking activity result in data set [7] is “have α1 -receptor blocking activity”.

For `COc1ccc([C@@H]2Sc3ccccc3N(CCN(C)C)C(=O)[C@@H]2OC(C)=O)cc1` [diltiazem], the “Total cholesterol concentration, effect in words” value in data set [1] is recorded as “no decrease”. Moreover, the “Total cholesterol concentration in plasma” value is 1127 ± 202 mg/dL in [1] (setting [14]), 2297 ± 127 mg/dL in data set [1] (setting [15]), 2106 ± 293 mg/dL in data set [1] (setting [16]) and 1626 mg/dL in [1] (setting [17]). In data set [2], the “Free cholesterol concentration, effect in words” value is “no decrease”. Besides, the “Free cholesterol concentration in plasma” value in [2] (setting [14]) turned out to be 318 ± 57 mg/dL; in [2] (setting [15]), 660 ± 42 mg/dL; in data set [2] (setting [16]) it was 673 ± 96 mg/dL; in data set [2] (setting [17]) it was 486 mg/dL. Moreover, in data set [3], the “Phospholipid concentration, effect in words” value is given as “no decrease”. In addition, the “Phospholipid concentration in plasma” value in data set [3] (setting [14]) came to 454 ± 72 mg/dL; in [3] (setting [15]), 931 ± 50 mg/dL; in [3] (setting [16]), 825 ± 116 mg/dL; in data set [3] (setting [17]), 718 mg/dL. In addition, the “Cholesterol amount in aortas” value in [4] is recorded as 509.3 ± 240.1 mg/kg of protein. The “Cholesterol amount in the aorta, effect in words” value (“Cholesterol amount in the aorta” below) in [4] is “not decreased at all”. For the same compound, in data set [5], the “Area … at aortic inner wall” value came to 45.2%. Moreover, the “Area of lipid deposition at the aortic inner wall, effect in words” value (“Area of lipid deposition … in words” for short) in data set [5] was “not decreased at all”. The hypotensive activity result in data set [8] is on record as “show hypotensive activity”. Moreover, the atherosclerosis inhibitory activity result in data set [9] (Atherosclerosis, 51, 343-344 (1984)) is “no inhibitory activity”; in data set [9] (rabbits, Lab. Invest. 49, 154-158 (1983)) it was “shows the atherosclerosis inhibitory activity”.

In the case of `O=C(CCCN1CCN(c2ccc(F)cc2)CC1)NC1c2ccccc2CSc2ccccc21` (stereo not shown) [maleate of Compound A], the “Total cholesterol concentration, effect in words” value in [1] was “significantly decreased from 8 weeks after the beginning of administration”. For the same compound, in data set [2], the “Free cholesterol concentration, effect in words” value is listed as “significantly decreased from 6 weeks after the beginning of the administration”. In addition, the “Phospholipid concentration, effect in words” value in data set [3] was “significantly decreased from 6 weeks after the beginning of the administration”. Besides, the “Cholesterol amount in the aorta” value in data set [4] is given as “significantly decreased”. Further, the “Area of lipid deposition … in words” value in data set [5] was “also decreased”. In data set [10], the LD50 was over 500 mg/kg. In [8], the hypotensive activity entry is listed as “show hypotensive activity”. The “toxicity by prolonged administration” value in data set [11] and in data set [12] was “no significant toxicity was observed” in each case.

`COc1cc2nc(N3CCN(C(=O)c4ccco4)CC3)nc(N)c2cc1OC` [prazosin]: the “Total cholesterol concentration, effect in words” value in data set [1] was “no decrease”. The “Total cholesterol concentration in plasma” value in data set [1] (setting [14]) was 1201 ± 45 mg/dL; in data set [1] (setting [15]), 3048 ± 236 mg/dL; in [1] (setting [16]), 2082 ± 194 mg/dL; in data set [1] (setting [17]) it was 1999 mg/dL. In addition, the “Free cholesterol concentration, effect in words” value in data set [2] is “no decrease”. In addition, the “Free cholesterol concentration in plasma” value in data set [2] (setting [14]) turned out to be 368 ± 22 mg/dL; in [2] (setting [15]), 916 ± 69 mg/dL; in data set [2] (setting [16]) it was 740 ± 96 mg/dL; in data set [2] (setting [17]) it was 584 mg/dL. Moreover, in data set [3], the “Phospholipid concentration, effect in words” value is on record as “no decrease”. In addition, the “Phospholipid concentration in plasma” value was determined as 474 ± 22 mg/dL in data set [3] (setting [14]), 1240 ± 94 mg/dL in data set [3] (setting [15]), 937 ± 112 mg/dL in [3] (setting [16]) and 803 mg/dL in data set [3] (setting [17]). For the same compound, the “Cholesterol amount in aortas” value in data set [4] was 372.8 ± 63.9 mg/kg of protein. The “Cholesterol amount in the aorta” value in data set [4] is reported as “not decreased at all”. For the same compound, the “Area … at aortic inner wall” value in data set [5] is recorded as 56.7%. The “Area of lipid deposition … in words” value in data set [5] was “not decreased at all”. Also, the hypotensive activity entry in [8] was “show hypotensive activity”. The α1-receptor blocking activity entry in data set [7] is on record as “having α1 -receptor blocking activity”. Moreover, the “blood lipid decreasing activity” value in data set [13] (Prog. Medicine 3, 1517-1525 (1983)) was “no blood lipid decreasing activity”; in [13] (human being, Am. J. Medicine, 76 (suppl. 2A), 79-84 (1984)), “shows blood lipid decreasing activity”.
